# Measurements published in patent US11927590B2, “Methods and systems for screening therapeutic compositions for treating age-related macular degeneration” (ARIZONA BOARD OF REGENTS ON BEHALF OF THE UNIVERSITY OF …, priority 2020, dated 2024).
# System: retinal pigment epithelial (RPE) cells
# Experiment: RPE exosome release
# Format: cell-based
# Conditions: RPE cells incubated in media (DMEM) plus L-DOPA versus media alone (FIG. 3A)
# From the text: Exosomes released from retinal pigment epithelial (RPE) cells can be isolated. […] Cells and cell debris are removed and exosomes are then purified. Note the present invention is not limited to this particular method of exosome isolation. In certain embodiments of the present invention, exosomes are not isolated for the measurement of levels of exosomes released from RPE cells. […] FIG. 3B illustrates GPR143 exosome release and its inhibition by L-DOPA. FIG. 4A and FIG. 4B show RPE exosome release studies in response to 30 minute treatments with 1 μM dopamine (FIG. 4A), 1 nM Dopamine 2 receptor (D2R) agonist (bromocriptine, FIG. 4B), and 1 nM Dopamine 2 receptor ([…]) antagonist (raclopride, FIG. 4B).
compound,measurement,value
N[C@@H](Cc1ccc(O)c(O)c1)C(=O)O [L-DOPA],exosome release from RPE cells,significant reduction in exosome release
